Reference: patent US20250295686A1, “COMBINATION DECITABINE AND MPS1 INHIBITOR THERAPY TO PRIME CANCER IMMUNOGENICITY” (Dana-Farber Cancer Institute, Inc., priority 2021, published 2025)
“Also recorded” adds a separate entry of the source.

How the values were obtained:
Type in all cases: cell-based, human
STING pathway = test: Screening of DNA-damaging agents: CXCL10 / IFN-β ELISA in conditioned medium of H1944 cells after pulse treatment
From the text: (§1) Due to their particular hypersensitivity, H1944 cells were utilized as a model system in which to conduct an unbiased screen of cytotoxic chemotherapies or targeted DNA-damaging agents for their ability to upregulate endogenous 2′3′-cGAMP production following pulse treatment, including cGAS-deficient H2122 cells as a counter-screen (FIGS. 3A and 3B). […] Additionally, hydroxyurea or nocodazole were included as controls to induce S-phase or M-phase cell cycle arrest. The IC50 was identified for each compound for cell viability in H1944 cells, and this concentration was utilized for the screen (FIG. 4A and Table 1). It was shown that each agent induced cellular cytotoxicity and/or DNA-damage response at this concentration, as measured by the induction of propidium iodide positive cells, cleaved PARP fragments, or histone TH2A.X expression (FIGS. 4B and 4C).
(§2) Human IFN-β (Thermo Fisher Scientific, Cat. #414101), human CXCL10 (R&D systems, Cat. #DIP100), mouse CXCL10 (R&D systems, Cat. #DY466), and 2′3′-cGAMP (Cayman Chemical, Cat. #501700) ELISAs were performed according to the manufacturer's instructions. Conditioned media from each cell lines was collected after 24 hour culture. Values represent the average of four replicates from at least two independent experiments (biological replicates).

THP1 cells = test: STING pathway activation (CXCL10 ELISA, immunoblot) in PMA-differentiated macrophage-like THP1 cells; conditions: 200 nM CFI-402257 screening schedule or 10 μM ADU-S100 24 hours
Experimental: Based on these observations, MPS1 inhibition might also induce micronuclei more efficiently in proliferating cancer cells as compared with non-genomically altered, non-proliferative cells in the TME such as immune cells and endothelial cells.
as §2
Cells were lysed in RIPA buffer containing 1× protease inhibitors (Roche, Cat #11-836-145-001) and phosphatase inhibitors (50 mmol/L NaF and 100 mmol/L Na3VO4). […] Imaging of blots and quantitation of bands was performed using the LICOR Odyssey system, or LAS-3000 (Fujifilm).

KL NSCLC cell lines = test: CXCL10 ELISA after exogenous CDN exposure, KL NSCLC cell lines; conditions: 24 hours
From the text: Treatment with 2′3′-cGAMP or ADU-S100 was utilized to examine the sensitivity of KP or KL NSCLC cell lines to exogenous CDN exposure. […] KL cell response to extracellular CDNs was still modest as compared with endothelial cells (HUVEC) or monocytic THP-1 cells, which also have different membrane permeabilities (FIG. 2C) (Cordova et al., 2021; Luteijn et al., 2019; Ritchie et al., 2019).
as §2

H1944 cells [1] = test: Cell viability assay to determine an IC50 (CellTiter-Glo); conditions: Homo sapiens, NCI-H1944, 72 hours with drug
From the text: as §1
3000 cells were plated onto 96-well plates, and then cultured for 72 hours in the presence of each DNA-damaging agent at the indicated concentration. Values of CellTiter-Glo Luminescent Cell Viability assay (Promega) […] were normalized to vehicle treated cells. Plates were read on a Tecan Infinite M200 Pro plate reader and analysis was performed using Prism7 (GraphPad Software). All conditions were tested in triplicate.

H1944 cells [2] = test: Quantification of micronucleus formation; conditions: 48-hour pulse treatment schedule, 200 nM CFI-402257, 5 nM docetaxel, 200 nM barasertib
From the text: MPS1 is a regulator of the spindle assembly checkpoint (SAC), and MPS1 inhibition in other contexts is known to facilitate massive chromosome missegregation (London and Biggins, 2014). This effect could therefore be related to the formation of micronuclei, known activators of cGAS-STING signaling generated by mitotic slippage and subsequent progression into G1 (Mackenzie et al., 2017). […] Furthermore, induction of CXCL10 mRNA expression in H1944 cells directly correlated with the number of micronuclei induced by these DNA-damaging agents, with CFI-402257 representing the clear outlier (FIG. 5C). Additionally, Lamin B2 over-expression, which is sufficient to inhibit micronuclei disruption (Hatch et al., 2013) and could protect against cGAS recognition, attenuated CXCL10 secretion induced by pulse treatment with MPS1 inhibitor (FIGS. 6A and 6B).
Cells were plated onto chamber slides (CellTreat, Cat #229168), and treated with DNA-damaging agents for 48 hours. […] Z-stack images were subjected to maximum projection followed by quantitative analysis using CellSens. All samples were imaged and analyzed with the same setting throughout the experiments. The number of micronuclei were counted from three different fields for each sample. […] Slides were imaged with Zeiss LSM 880 confocal microscopy, and colocalization was determined using ImageJ.

SMILES	STING signaling activation in H1944 cells (STING pathway; 200 nM CFI-402257 screening schedule vs 10 μM ADU-S100 24 hours)	STING pathway activation in macrophage-like THP1 cells (THP1 cells)	CXCL10 secretion, STING^Absent KL cell lines (KL NSCLC cell lines; A549, H23, A427, up to 100 μM)	CXCL10 secretion, STING^Low KL cells (KL NSCLC cell lines; H1944, H2122, H647, H1355, 3.125-100 μM)	IC50 (H1944 cells [1]) [nM]	CXCL10 secretion in H1944 cells following 48-hour pulse treatment (STING pathway; H1944 cells, IC50-based screening concentration, ELISA of conditioned medium)	CXCL10 induction at lower concentrations (STING pathway; H1944 cells, concentrations below the IC50, pulse treatment)	micronuclei formation (H1944 cells [2])
Nc1ncnc2c1ncn2[C@@H]1O[C@@H]2COP(=O)([S-])O[C@@H]3[C@H](O)[C@@H](COP([O-])(=S)O[C@H]2[C@H]1O)O[C@H]3n1cnc2c(N)ncnc21.[Na+].[Na+] (some centres unmarked) [ADU-S100]	negligible impact	high sensitivity	failed to respond	dose-dependent manner				
CC(=O)O[C@@]12CO[C@@H]1C[C@H](O)[C@@]1(C)C(=O)[C@H](O)C3=C(C)[C@@H](OC(=O)[C@H](O)[C@@H](NC(=O)OC(C)(C)C)c4ccccc4)C[C@@](O)([C@@H](OC(=O)c4ccccc4)[C@H]21)C3(C)C [docetaxel]					3.97	induce significant CXCL10 secretion; also recorded: partially activated CXCL10 production	not upregulated	generated micronuclei
